Target: T1, human mAChR M1 (Homo sapiens, UniProt P11229)
T1 sequence (P11229 1-460): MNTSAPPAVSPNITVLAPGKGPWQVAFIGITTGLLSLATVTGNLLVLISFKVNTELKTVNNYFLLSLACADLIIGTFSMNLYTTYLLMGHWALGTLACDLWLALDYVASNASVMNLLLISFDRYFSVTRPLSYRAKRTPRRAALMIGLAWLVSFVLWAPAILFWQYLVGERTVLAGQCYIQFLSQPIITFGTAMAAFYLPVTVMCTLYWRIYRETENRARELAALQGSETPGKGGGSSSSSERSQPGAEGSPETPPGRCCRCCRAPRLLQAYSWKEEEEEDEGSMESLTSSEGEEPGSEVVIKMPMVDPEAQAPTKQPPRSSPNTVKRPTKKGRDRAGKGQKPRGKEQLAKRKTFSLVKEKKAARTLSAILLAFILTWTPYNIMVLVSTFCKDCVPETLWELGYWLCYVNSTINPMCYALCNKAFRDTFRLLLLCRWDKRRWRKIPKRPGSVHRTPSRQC
Assay: mAChR M1 cell-based functional assay: calcium mobilization, positive allosteric modulator mode (increase in EC20 acetylcholine response)
Details: Table 2, human M1; for EC50: read-out: Human M1 EC50; for Emax: read-out: Human M1 Emax (%)
Method in brief: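 PAM potency reflects the concentration-dependent increase in calcium response to an EC20 acetylcholine challenge, given 144 s into a 300 s read after compound addition at 4 s (EC80 follows at 230 s). Cells were hM1-expressing CHO-K1, loaded 50 min with Fluo-4 AM. Curves used 11 points at 1:3 dilutions and four-parameter logistic fitting.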

SMILES	EC50	Emax
Cc1nn(C)cc1-c1ccc(Cc2cc(C(=O)NC3COC3)nc3ccsc23)cc1 [Compound 244, 7-[[4-(1,3-dimethylpyrazol-4-yl)phenyl]methyl]-N-(oxetan-3-yl)thieno[3,2-b]pyridine-5-carboxamide]	187 nM	15%
Cc1nn(C)cc1-c1ccc(Cc2cc(C(=O)NC3CN(C(C)(C)C)C3)nc3ccsc23)cc1 [Compound 245, N-(1-tert-butylazetidin-3-yl)-7-[[4-(1,3-dimethylpyrazol-4-yl)phenyl]methyl]thieno[3,2-b]pyridine-5-carboxamide]	> 10000 nM	16.2%
COC1CC(NC(=O)c2cc(Cc3ccc(-c4cn(C)nc4C)cc3)c3sccc3n2)C1 (stereo not drawn) [Compound 246, 7-[[4-(1,3-dimethylpyrazol-4-yl)phenyl]methyl]-N-(3-methoxycyclobutyl)thieno[3,2-b]pyridine-5-carboxamide]	> 10000 nM	16%
Cc1nn(C)cc1-c1ccc(Cc2cc(C(=O)N[C@H]3CCC[C@@H]3O)nc3ccsc23)cc1 [Compound 247, 7-[[4-(1,3-dimethylpyrazol-4-yl)phenyl]methyl]-N-[(1S,2S)-2-hydroxycyclopentyl]thieno[3,2-b]pyridine-5-carboxamide]	4060 nM	30.6%
Cc1nn(C)cc1-c1ccc(Cc2cc(C(=O)N[C@H]3CCOC[C@@H]3O)nc3ccsc23)cc1 [Compound 248, 7-[[4-(1,3-dimethylpyrazol-4-yl)phenyl]methyl]-N-[(3R,4S)-3-hydroxytetrahydropyran-4-yl]thieno[3,2-b]pyridine-5-carboxamide]	4880 nM	71.3%
Cc1nn(C)cc1-c1ccc(Cc2cc(C(=O)N[C@H]3COCC[C@@H]3O)nc3ccsc23)cc1 [Compound 249, 7-[[4-(1,3-dimethylpyrazol-4-yl)phenyl]methyl]-N-[(3S,4S)-4-hydroxytetrahydropyran-3-yl]thieno[3,2-b]pyridine-5-carboxamide]	> 10000 nM	42.1%
Cc1nn(C)cc1-c1ccc(Cc2cc(C(=O)N[C@H]3CCCC[C@@H]3O)nc3ccsc23)cc1 [Compound 250]	> 10000 nM	48.1%
Cn1ccc(-c2ccc(Cc3cc(C(=O)N[C@@H]4CC[C@H]4O)nc4ccsc34)cc2)n1 [Compound 251, N-[(1R,2R)-2-hydroxycyclobutyl]-7-[[4-(1-methylpyrazol-3-yl)phenyl]methyl]thieno[3,2-b]pyridine-5-carboxamide]	234 nM	70.3%
Cn1ccc(-c2ccc(Cc3cc(C(=O)NC4CC5(COC5)C4)nc4ccsc34)cc2)n1 [Compound 252, 7-[[4-(1-methylpyrazol-3-yl)phenyl]methyl]-N-(2-oxaspiro[3.3]heptan-6-yl)thieno[3,2-b]pyridine-5-carboxamide]	258 nM	78.4%
Cn1ccc(-c2ccc(Cc3cc(C(=O)N[C@H]4CCC[C@@H]4O)nc4ccsc34)cc2)n1 [Compound 253, N-[(1S,2S)-2-hydroxycyclopentyl]-7-[[4-(1-methylpyrazol-3-yl)phenyl]methyl]thieno[3,2-b]pyridine-5-carboxamide]	144 nM	74.5%
Cn1ccc(-c2ccc(Cc3cc(C(=O)NC4CCOCC4)nc4ccsc34)cc2)n1 [Compound 254, 7-[[4-(1-methylpyrazol-3-yl)phenyl]methyl]-N-tetrahydropyran-4-yl-thieno[3,2-b]pyridine-5-carboxamide]	142 nM	71.6%
Cn1ccc(-c2ccc(Cc3cc(C(=O)N[C@H]4CCOC[C@@H]4O)nc4ccsc34)cc2)n1 [Compound 255, N-[(3R,4S)-3-hydroxytetrahydropyran-4-yl]-7-[[4-(1-methylpyrazol-3-yl)phenyl]methyl]thieno[3,2-b]pyridine-5-carboxamide]	5.76 nM	47%
Cn1ccc(-c2ccc(Cc3cc(C(=O)N[C@H]4CCCC[C@@H]4O)nc4ccsc34)cc2)n1 [Compound 256, N-[(1S,2S)-2-hydroxycyclohexyl]-7-[[4-(1-methylpyrazol-3-yl)phenyl]methyl]thieno[3,2-b]pyridine-5-carboxamide]	57.6 nM	50%
Cc1ccc(Cc2cc(C(=O)NC3(C#N)CC3)nc3ccsc23)cn1 [Compound 257, N-(1-cyanocyclopropyl)-7-[(6-methyl-3-pyridyl)methyl]thieno[3,2-b]pyridine-5-carboxamide]	> 10000 nM	26.4%
Cc1ccc(Cc2cc(C(=O)NC3COC3)nc3ccsc23)cn1 [Compound 258, 7-[(6-methyl-3-pyridyl)methyl]-N-(oxetan-3-yl)thieno[3,2-b]pyridine-5-carboxamide]	> 10000 nM	27.5%
Cc1ccc(Cc2cc(C(=O)NC3CC(F)C3)nc3ccsc23)cn1 (stereo not drawn) [Compound 259, N-(3-fluorocyclobutyl)-7-[(6-methyl-3-pyridyl)methyl]thieno[3,2-b]pyridine-5-carboxamide]	> 10000 nM	56.2%
Cc1ccc(Cc2cc(C(=O)NC3CC(F)(F)C3)nc3ccsc23)cn1 [Compound 260, N-(3,3-difluorocyclobutyl)-7-[(6-methyl-3-pyridyl)methyl]thieno[3,2-b]pyridine-5-carboxamide]	5370 nM	58.4%
Cc1ccc(Cc2cc(C(=O)NC3CC4(COC4)C3)nc3ccsc23)cn1 [Compound 261, 7-[(6-methyl-3-pyridyl)methyl]-N-(2-oxaspiro[3.3]heptan-6-yl)thieno[3,2-b]pyridine-5-carboxamide]	> 10000 nM	52.8%
Cc1ccc(Cc2cc(C(=O)N[C@@H]3CCOC3)nc3ccsc23)cn1 [Compound 262]	> 10000 nM	24.4%
Cc1ccc(Cc2cc(C(=O)N[C@H]3CCOC3)nc3ccsc23)cn1 [Compound 263, 7-[(6-methyl-3-pyridyl)methyl]-N-[(35)-tetrahydrofuran-3-yl]thieno[3,2-b]pyridine-5-carboxamide]	> 10000 nM	29.3%
O=C(NC1CCOCC1)c1cc(C(=O)c2ccc(-n3cccn3)cc2)c2sccc2n1 [Compound 264, 7-(4-pyrazol-1-ylbenzoyl)-N-tetrahydropyran-4-yl-thieno[3,2-b]pyridine-5-carboxamide]	> 10000 nM	72.7%
Cc1ccc(Cc2cc(C(=O)N[C@@H]3CCCNC3)nc3ccsc23)cn1 [Compound 265, 7-[(6-methyl-3-pyridyl)methyl]-N-[(3R)-3-piperidyl]thieno[3,2-b]pyridine-5-carboxamide]	> 10000 nM	56.4%
Cc1ccc(Cc2cc(C(=O)N[C@H]3CCCNC3)nc3ccsc23)cn1 [Compound 266, 7-[(6-methyl-3-pyridyl)methyl]-N-[(3S)-3-piperidyl]thieno[3,2-b]pyridine-5-carboxamide]	> 10000 nM	59.3%
Cn1cc(-c2ccc(Cc3cc(C(=O)N[C@H]4CCOC[C@@H]4O)nc4ccsc34)cc2)cn1 [Compound 267, N-[(3R,4S)-3-hydroxytetrahydropyran-4-yl]-7-[[4-(1-methylpyrazol-4-yl)phenyl]methyl]thieno[3,2-b]pyridine-5-carboxamide]	3.41 nM	50.9%
Cn1cc(-c2ccc(Cc3cc(C(=O)NC4CCOCC4)nc4ccsc34)cc2)cn1 [Compound 268, 7-[[4-(1-methylpyrazol-4-yl)phenyl]methyl]-N-tetrahydropyran-4-yl-thieno[3,2-b]pyridine-5-carboxamide]	59.5 nM	70.1%
Cc1csc2c(Cc3ccc(-n4cccn4)cc3)cc(C(=O)N[C@H]3CCOC[C@@H]3O)nc12 [Compound 269, N-[(3R,4S)-3-hydroxytetrahydropyran-4-yl]-3-methyl-7-[(4-pyrazol-1-ylphenyl)methyl]thieno[3,2-b]pyridine-5-carboxamide]	23.4 nM	77.6%
O=C(N[C@H]1CCOC[C@@H]1O)c1cc(Cc2c(F)cc(-c3cscn3)cc2F)c2sccc2n1 [Compound 270, 7-[(2,6-difluoro-4-thiazol-4-yl-phenyl)methyl]-N-[(3R,4S)-3-hydroxytetrahydropyran-4-yl]thieno[3,2-b]pyridine-5-carboxamide]	39.7 nM	78.5%
O=C(NC1CCOCC1)c1cc(Cc2c(F)cc(-c3cscn3)cc2F)c2sccc2n1 [Compound 271, 7-[(2,6-difluoro-4-thiazol-4-yl-phenyl)methyl]-N-tetrahydropyran-4-yl-thieno[3,2-b]pyridine-5-carboxamide]	312 nM	45.5%
O=C(NC1CC2(COC2)C1)c1cc(Cc2c(F)cc(-c3cscn3)cc2F)c2sccc2n1 [Compound 272, 7-[(2,6-difluoro-4-thiazol-4-yl-phenyl)methyl]-N-(2-oxaspiro[3.3]heptan-6-yl)thieno[3,2-b]pyridine-5-carboxamide]	434 nM	35.9%
O=C(N[C@H]1CCCC[C@@H]1O)c1cc(Cc2c(F)cc(-c3cscn3)cc2F)c2sccc2n1 [Compound 273, 7-[(2,6-difluoro-4-thiazol-4-yl-phenyl)methyl]-N-[(1S,2S)-2-hydroxycyclohexyl]thieno[3,2-b]pyridine-5-carboxamide]	272 nM	73.6%

Reference: patent US11111251B2, “Positive allosteric modulators of the muscarinic acetylcholine receptor M1” (Vanderbilt University, priority 2016, dated 2021)
